Measurements reported in paper PMC8881469, “Molecular recognition of formylpeptides and diverse agonists by the formylpeptide receptors FPR1 and FPR2” (Nature Communications, 2022).
Like-named read-outs stand apart in the source and are kept apart here.

Key:
[1] = system: FPR2; details: at various concentrations; cited from earlier work
Text: This may be due to the coupling of Gi, which stabilizes the receptor in one active conformation. Thus, it is difficult to speculate on the specific conformational states of FPR2 associated with pro-inflammatory and pro-resolving agonists.

[2] = multiple studies; cited from earlier work
[3] = system: FPR2 R205A; test: cAMP accumulation assay, HEK293 cells, Epac-based FRET biosensor H187, 1 µM forskolin; type: cell-based, human
Experimental: (§1) An Epac-based FRET cAMP biosensor H187 was used to measure cellular cAMP levels. The plasmid encoding H187 was transfected into HEK293 cells to make stable cells reporting intracellular cAMP levels. In brief, the H187 stable cells were seeded in poly-D-lysine treated 96-well black clear-bottom plate at 30,000 cells per well. 24 h later, cells were transiently transfected with DNA encoding the N-terminal FLAG-tagged wild-type FPR1, FPR2 or mutants at an amount of 0.1 µg DNA per well. Assays were performed 24 h after transfection. Cells were washed twice with HBSS buffer and incubated at room temperature for 30 min before the addition of forskolin to a final concentration of 1 µM. The intracellular cAMP level was measured using a multimode reader (Spark 20 M, TECAN) measuring the fluorescence emission intensity at 485 nm and 535 nm upon the excitation at 430 nm. 15 min after forskolin incubation, cells were stimulated with agonists at different concentrations and measured for additional 20 min. The FRET signal was calculated as the normalized FRET ratio of fluorescence emission at 535 nm (F535) divided by emission at 485 nm (F485). The EC50 was determined with the FRET ratio at the timepoint of 1600 s. The data analysis was performed using the nonlinear regression fit logIC50 mode in GraphPad Prism.

[4] = system: FPR2 F110A; test: as above; type: cell-based, human
Experimental: as §1

[5] = system: FPR2 R201A; test: as above; type: cell-based, human
Experimental: as §1

[6] = system: FPR2; details: relative to C43; cited from earlier work
Text: Similar to peptide agonists, C43 causes conformational changes of residues in the activation chamber including V113^3.40 and W254^6.48 through direct interactions to activate the receptor.

[7] = system: FPR2; details: cited from earlier work
[8] = system: FPR1; details: cited from earlier work
[9] = system: FPR1 R201A; test: cAMP accumulation assay, HEK293 cells, Epac-based FRET biosensor H187, 1 µM forskolin; type: cell-based, human; details: FPR1 R201A vs wild type
Experimental: as §1

[10] = system: FPR1 D106A; test: as above; type: cell-based, human; details: FPR1 D106A vs wild type
Experimental: as §1

[11] = system: FPR1 F102H; test: as above; type: cell-based, human; details: FPR1 F102H vs wild type
Experimental: as §1

[12] = system: FPR1 R205A; test: as above; type: cell-based, human; details: FPR1 R205A vs wild type
Experimental: as §1

[13] = system: FPR1 R84D; test: as above; type: cell-based, human; details: FPR1 R84D vs wild type
Experimental: as §1

[14] = system: FPR1 Y257F; test: as above; type: cell-based, human; details: FPR1 Y257F vs wild type
Experimental: as §1

[15] = system: FPR1; details: short formylpeptides; cited from earlier work
Text: The human formylpeptide receptor (FPR) family comprises of three members, FPR1, FPR2 (also named FPRL1), and FPR3[1]. They were initially discovered and characterized as pattern recognition G protein-coupled receptors (GPCRs) to recognize peptides with N-terminal formyl methionine, which are derived from invading pathogens or host mitochondria as pathogen- or damage-associated molecular patterns (PAMPs and DAMPs)[1]–[5]. FPR1 and FPR2 share a high sequence similarity, yet they display different preferences of formylpeptides. FPR1 is a high-affinity receptor for many short formylpeptides suc ...

[16] = system: FPR1 versus FPR2; details: cited from earlier work
[17] = system: FPR2 R205A; details: cited from earlier work
Text: (§2) To investigate critical structural determinants for the binding of CGEN-885A, we measured the CGEN-885A-induced signaling of FPR2 with mutations of residues in the CGEN-885A-binding pocket. […] Considering the negatively charged environment of the ligand-b ...

[18] = system: FPR2 R201A; details: cited from earlier work
Text: as §2

## CCCCC[C@@H](O)/C=C/C=C\C=C\C=C\[C@@H](O)[C@@H](O)CCCC(=O)O [ATL, aspirin-triggered 15-epi-lipoxin A4]
[1]
  FPR2 signaling responses: unusual biphasic signaling responses

## COc1cc(F)c([C@@H]2CNC(=O)[C@H]2NC(=O)Nc2ccccc2)c(F)c1 [BMS-986235]
[2]
  pro-resolving and cardiac protective effects: pro-resolving and cardiac protective effects

## CC(C)c1c(NC(=O)Nc2ccc(Cl)cc2)c(=O)n(-c2ccccc2)n1C [C43]
[3]
  agonistic action, effect of mutation R205A: nearly undetectable agonistic action
[4]
  agonistic action, effect of mutation F110A: nearly undetectable agonistic action
[5]
  agonistic action, effect of mutation R201A: nearly undetectable agonistic action
[6]
  ligand potency on alternating the para-position of the chloride group: significant loss of ligand potency
[7]; small-molecule agonist
  agonist activity on FPR2: potent
[8]; small-molecule agonist
  agonist activity on FPR1: potent

## COc1cccc(Cc2cc(C)nn(C(C)C(=O)Nc3ccc(Br)cc3)c2=O)c1 (centres unmarked) [Compound 17b]
[2]
  pro-resolving and cardiac protective effects: pro-resolving and cardiac protective effects

## N-formyl-Met-Leu-Phe [fMLF, prototypical formylpeptide]
[9]
  agonistic potency, effect of mutation R201A: compromised agonistic potency
[10]
  agonistic potency, effect of mutation D106A: compromised agonistic potency
[11]
  potency in activating FPR1, effect of mutation of F102 to FPR2 counterpart: reduced potency
[12]
  agonistic potency, effect of mutation R205A: compromised agonistic potency
[13]
  potency in activating FPR1, effect of mutation R84D: reduces the potency
[14]
  potency in activating FPR1, effect of mutation of Y257 to FPR2 counterpart: reduced potency
[15]
  FPR1 affinity: high-affinity
[16]; FPR2 relative to FPR1
  fold less potent (in terms of EC50) in inducing FPR2 signaling than FPR1: about 1000 fold

## WKYMVm
[17]
  agonistic activity, effect of mutation R205A: much compromised agonistic activities
[18]
  agonistic activity, effect of mutation R201A: much compromised agonistic activities

## fMLFII [formylpeptide agonist for both FPR1 and FPR2]
[16]; FPR1 relative to FPR2
  fold higher potency in activating FPR1 than FPR2: ~ 100 fold
[16]; FPR1 vs FPR2
  affinity for FPR1 relative to FPR2: higher affinity
[7]; formylpeptide agonist
  agonist activity on FPR2: potent
[8]; formylpeptide agonist
  agonist activity on FPR1: potent
